In patent US5674886A, “Triazolylated teritiary amine compound or salt thereof” (Yamanouchi Pharmaceutical Co., Ltd., priority 1991, dated 1997):

Columns and labels:
[1] = target: T1, aromatase from human placental microsomes (Homo sapiens, UniProt P11511); test: In vitro inhibition of aromatase in human placenta microsomes; type: biochemical; settings: [1,2-3H] androstenedione
T1 construct: in human placenta microsomes; from tissue; host or cells: human placenta, microsomes
T1 sequence (P11511 1-503): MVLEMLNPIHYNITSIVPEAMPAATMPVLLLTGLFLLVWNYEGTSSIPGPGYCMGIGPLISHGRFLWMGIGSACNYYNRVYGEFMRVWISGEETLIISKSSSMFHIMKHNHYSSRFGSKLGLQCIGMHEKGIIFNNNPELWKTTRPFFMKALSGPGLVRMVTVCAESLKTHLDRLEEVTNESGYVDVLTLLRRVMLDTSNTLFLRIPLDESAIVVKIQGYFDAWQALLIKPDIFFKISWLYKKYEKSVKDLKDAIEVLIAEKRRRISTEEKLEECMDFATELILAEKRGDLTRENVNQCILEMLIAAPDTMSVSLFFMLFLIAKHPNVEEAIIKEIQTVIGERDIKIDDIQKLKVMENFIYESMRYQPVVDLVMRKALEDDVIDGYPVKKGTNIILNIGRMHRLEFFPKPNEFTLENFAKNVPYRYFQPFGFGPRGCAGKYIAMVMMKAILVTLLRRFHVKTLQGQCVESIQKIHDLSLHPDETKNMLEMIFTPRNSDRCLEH
Method: (b) Inhibition of aromatase obtained from human placenta
The activity was measured in accordance with the method described in Endocrine Research, 16 (2) 253 (1990).
The inhibition activity of the compound was determined based on the inhibition of ^3 H2 O to be released from [1,2-^3 H] androstenedione in human placenta microsomes.
1. In vitro inhibition of aromatase in human placenta microsomes:
IC50 value for ex vivo inhibition of aromatase from human placental microsomes was obtained in accordance with the above-mentioned experimental method (1-b), and the results obtained are shown in Table 1.

aldosterone production = test: In vivo inhibition of aldosterone production in rats (ACTH-stimulated blood aldosterone); parameters: species or system rat; settings: 100 mg/kg, five rats, one-way ANOVA
Method: (b) In vivo inhibition of aldosterone production in rats:
The inhibitory activity was measured in accordance with the method described in J. Steroid Biochem., 34 567 (1989). The inhibitory activity of a test compound was determined based on inhibition of the blood aldosterone to be increased by stimulation by ACTH in rats. The amount of aldosterone was measured by RIA.
3. In vivo inhibition of aldosterone production in rats:
By the above-mentioned experimental method (4-b), aldosterone production inhibitory activity in rats was measured.
The statistical significance of value was analyzed by using one-way ANOVA. The results mean that the compounds of the present invention are highly safe compounds with few harmful side effects also in the in vivo test as well.

[2] = test system: cortisol production, rabbit adrenal cultured cells; test: In vitro inhibition of cortisol production (ACTH-stimulated rabbit adrenal cultured cells); type: cell-based; settings: Oryctolagus cuniculus
Method: (5) In vitro inhibition of cortisol production:
The inhibitory activity was measured in accordance with the method described in Endocrinology, 114 (2) 486 (1984). The inhibitory activity of a test compound was determined based on inhibition of the cortisol production produced by stimulation of first-generation of rabit adrenal cultured cells by ACTH. The amount of cortisol was measured by RIA.
4. In vitro inhibition of cortisol production in rabbit:
IC50 value of the compounds for in vitro inhibition of cortisol production was obtained by the above-mentioned experimental method (5), and the results obtained are shown in Table 3.

[3] = target: T2, rat aromatase (rat ovarian microsomes) (Rattus norvegicus, UniProt P22443); test: In vitro inhibition of aromatase obtained from rat ovary; type: biochemical
T2 construct: in rat ovarian microsomes; from tissue; host or cells: rat ovary, microsomes
T2 sequence (P22443 1-508): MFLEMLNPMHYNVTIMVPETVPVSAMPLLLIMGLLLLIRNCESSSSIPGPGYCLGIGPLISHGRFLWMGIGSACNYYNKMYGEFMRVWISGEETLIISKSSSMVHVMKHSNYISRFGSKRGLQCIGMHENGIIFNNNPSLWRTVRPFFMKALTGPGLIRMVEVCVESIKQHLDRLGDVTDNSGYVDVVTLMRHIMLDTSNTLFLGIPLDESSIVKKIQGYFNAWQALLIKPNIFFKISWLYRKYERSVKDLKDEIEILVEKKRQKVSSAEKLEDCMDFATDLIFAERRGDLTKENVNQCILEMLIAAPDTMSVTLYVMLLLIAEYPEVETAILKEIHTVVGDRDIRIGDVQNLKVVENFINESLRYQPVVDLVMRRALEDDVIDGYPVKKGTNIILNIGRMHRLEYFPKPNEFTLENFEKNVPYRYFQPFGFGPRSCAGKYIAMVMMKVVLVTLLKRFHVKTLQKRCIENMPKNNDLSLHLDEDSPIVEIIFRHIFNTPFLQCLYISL
Method: (a) Inhibition of aromatase obtained from rat ovary:
The activity was measured in accordance with the method described in J. Biol. Chem., 249 5364 (1974).
The IC50 value of the test compound on aromatase inhibition was determined based on inhibition of ^3 H2 O to be released from [1,2-^3 H] androstenedione in rat ovarian microsomes.
(§1) 2. Selectivity of In vitro inhibition of rat ovarian aromatase and in vitro aldosterone production in rat:
(§2) IC50 values for in vitro inhibition of rat aromatase and […] inhibition of rat aldosterone production were measured in accordance with the above-mentioned experimental methods (1-a) and (4-a), respectively. The selectivity indicates a ratio of IC50 value for rat aldosterone production to IC50 value for rat aromatase.

[4] = test system: aldosterone production, rat adrenal cultured cells; test: In vitro inhibition of aldosterone production (ACTH-stimulated rat adrenal cultured cells); type: cell-based; settings: read-out: IC50, Rat aldosterone inhibitory activity (B)
Method: (a) In vitro inhibition of aldosterone production:
The activity was measured in accordance with the method described in J. Vet. Pharmacol. Therap., 11 345 (1988). The inhibition activity of the test compound was determined based on the inhibition of aldosterone production produced by stimulation of first-generation of rat adrenal cultured cells by ACTH. The amount of aldosterone was measured by RIA.
as §1, §2

[5] = Metabolism: plasma concentration of the non-changed compound after oral administration to rats; type: in vivo; settings: rat, 3 mg/kg oral
Text: From the results, it is understood that the compound of the present invention has an excellent oral absorbability and that the effect of the absorbed compound lasts long. Thus, the compound has a good profile as a medicine.

| SMILES | IC50 [1] [nM] | inhibition of aldosterone production in rats (significance) (aldosterone production) | IC50 [2] [µM] | IC50 ([3]; rat ovarian microsomes, in vitro, read-out: IC50, Rat aromatase inhibitory activity (A)) [nM] | Selectivity (B/A) ([3]; ratio of IC50 for rat aldosterone production to IC50 for rat aromatase) | IC50 [4] [nM] | half-life ([5]; read-out: extinction half time (T1/2) (converted)) [min] | Cmax ([5]; read-out: maximum value (Cmax) of the concentration of the non-changed compound in the plasma) [ng/mL] |
| --- | --- | --- | --- | --- | --- | --- | --- | --- |
| O=[N+]([O-])c1ccc(N(Cc2ccc(Br)cc2)n2cnnc2)cc1 [Example 12, 4-[N-(4-bromobenzyl)-N-(4-nitrophenyl)amino]-4H-1,2,4-triazole] | 0.03 | did not inhibit aldosterone production significantly | – | – | – | – | – | – |
| O=[N+]([O-])c1ccc(CN(c2ccc([N+](=O)[O-])cc2)n2cnnc2)cc1 [Example 10, 4-[N-(4-nitrobenzyl)-N-(4-nitrophenyl)amino]-4H-1,2,4-triazole] | 0.11 | did not inhibit aldosterone production significantly | 7 | – | – | – | – | – |
| N#Cc1ccc(N(Cc2ccc(Br)cc2)n2cnnc2)cc1 [Example 15, 4-[N-(4-bromobenzyl)-N-(4-cyanophenyl)amino]-4H-1,2,4-triazole] | 0.13 | did not inhibit aldosterone production significantly | 4 | 0.37 | 6100 | 2250 | 660 | 2880 |
